Results as given in paper PMC10733463, “Berberine-microbiota interplay: orchestrating gut health through modulation of the gut microbiota and metabolic transformation into bioactive metabolites” (Frontiers in Pharmacology, 2023).

Key:
CD3+ T-cells = experiment: CD3 immunohistochemistry of duodenal tissue; assay type: in vivo, Ross 308 broiler chickens; settings: duodenum, 21 days
Text: The study was undertaken following the guidelines of the ethics committee of the Faculty of Veterinary Medicine and Bioscience Engineering, Ghent University, in accordance with the EU Directive 2010/63/EU. […] They were allotted into 4 groups, with three replicate pens per group each housing 8 chickens. The animals were not vaccinated. Water and commercial starter feed (day 1-12, FARM 1 Mash, Country's Best, […], Belgium) or grower (day 13-21, FARM 2 mash, Country's Best, […], Belgium) were provided ad libitum. […] At day 21, 4 birds per pen were weighted then euthanized by sodium pentobarbital injection for sampling. […] Additionally, ileal and caecal content samples were collected and stored at -20°C for berberine and berberine-derived metabolite quantification. […] Slides for immunohistochemical staining for CD3^+ T-cells were automatically deparaffinized (Shandon […]-Gemini) before antigen retrieval with a pressure cooker in citrate buffer (10 mM, pH 6). Endogenous peroxidase activity was blocked by treating the slides with peroxidase blocking reagent ([…], Dako, Glostrup, Denmark) for 5 min. The presence of T-cells (CD3-positive cell abundance) in duodenal tissue from 21-day old chickens was evaluated using polyclonal primary antibodies against CD3 ([…], Dako, 1:100 dilution, 30 min at room temperature), followed by incubation with a secondary labelled polymer-HRP anti-rabbit antibody (Envision + System-HRP (DAB) ([…]), 30 min at room temperature). Slides were evaluated using the computer-based image analysis program, LAS V4.1. The CD3^+ area percentage in the duodenal tissue was quantified using four representative fields of view per intestinal section (10x objective).

ileal microbiota = experiment: 16S rRNA gene sequencing, microbiota composition in the ileum; assay type: in vivo, Ross 308 broiler chickens
[1] = 0.1 g berberine/kg feed vs normal diet, 21 days, LinDA-normalized abundance
[2] = 0.1 g berberine/kg feed, 21 days
[3] = 0.5 g berberine/kg feed vs normal diet, 21 days, LinDA-normalized abundance
[4] = 0.5 g berberine/kg feed, 21 days
[5] = 1 g berberine/kg feed vs normal diet, 21 days, LinDA-normalized abundance

COc1ccc2cc3[n+](cc2c1OC)CCc1cc2c(cc1-3)OCO2 [Berberine, Berberine chloride]
CD3+ area percentage (CD3+ T-cells; 0.1 g berberine/kg feed): 8.39 ± 1.05 | CD3+ area percentage (CD3+ T-cells; 0.5 g berberine/kg feed): 8.89 ± 2.09 | CD3+ area percentage (CD3+ T-cells; 1 g berberine/kg feed): 7.11 ± 2.18 | L2 FC Cronobacter, 0.1 vs 0 (ileal microbiota; [1]): 0.38 | L2 FC Curtobacterium, 0.1 vs 0 (ileal microbiota; [1]): -0.49 | L2 FC Faecalibacterium, 0.1 vs 0 (ileal microbiota; [1]): 1.89 | L2 FC Family_ Peptostreptococcaceae, 0.1 vs 0 (ileal microbiota; [1]): 2.07 | L2 FC Glutamicibacter, 0.1 vs 0 (ileal microbiota; [1]): 0.33 | L2 FC Lachnoclostridium 5, 0.1 vs 0 (ileal microbiota; [1]): 0.40 | L2 FC Ralstonia, 0.1 vs 0 (ileal microbiota; [1]): -0.96 | L2 FC Romboutsia, 0.1 vs 0 (ileal microbiota; [1]): 2.23 | L2 FC Serratia, 0.1 vs 0 (ileal microbiota; [1]): 0.03 | L2 FC Tyzzerella, 0.1 vs 0 (ileal microbiota; [1]): 0.06 | L2 FC uncultured genus of Mollicutes RF39, 0.1 vs 0 (ileal microbiota; [1]): 0.63 | L2 FC uncultured genus of Peptostreptococcaceae, 0.1 vs 0 (ileal microbiota; [1]): 1.99 | Mean relative abundance (%) Cronobacter (ileal microbiota; [2]): 0.00% | Mean relative abundance (%) Curtobacterium (ileal microbiota; [2]): 0.01% | Mean relative abundance (%) Faecalibacterium (ileal microbiota; [2]): 0.02% | Mean relative abundance (%) Family_ Peptostreptococcaceae (ileal microbiota; [2]): 0.37% | Mean relative abundance (%) Glutamicibacter (ileal microbiota; [2]): 0.01% | Mean relative abundance (%) Lachnoclostridium 5 (ileal microbiota; [2]): 0.00% | Mean relative abundance (%) Ralstonia (ileal microbiota; [2]): 0.04% | Mean relative abundance (%) Romboutsia (ileal microbiota; [2]): 0.24% | Mean relative abundance (%) Serratia (ileal microbiota; [2]): 0.00% | Mean relative abundance (%) Tyzzerella (ileal microbiota; [2]): 0.00% | Mean relative abundance (%) uncultured genus of Mollicutes RF39 (ileal microbiota; [2]): 0.00% | Mean relative abundance (%) uncultured genus of Peptostreptococcaceae (ileal microbiota; [2]): 38.50% | Mean relative abundance of Lachnospiraceae (ileal microbiota; [2]): 2.54% | Mean relative abundance of Peptostreptococcaceae (ileal microbiota; [2]): 39.1% | Mean relative abundance of Ruminococcaceae (ileal microbiota; [2]): 1.35% | L2FC of LinDA-normalized abundance of Lachnospiraceae (ileal microbiota; 0.1 vs 0 g berberine/kg feed): -0.49 | L2FC of LinDA-normalized abundance of Peptostreptococcaceae (ileal microbiota; 0.1 vs 0 g berberine/kg feed): 1.55 | L2FC of LinDA-normalized abundance of Ruminococcaceae (ileal microbiota; 0.1 vs 0 g berberine/kg feed): 0.41 | L2 FC Cronobacter, 0.5 vs 0 (ileal microbiota; [3]): -0.95 | L2 FC Curtobacterium, 0.5 vs 0 (ileal microbiota; [3]): -1.50 | L2 FC Faecalibacterium, 0.5 vs 0 (ileal microbiota; [3]): 1.01 | L2 FC Family_ Peptostreptococcaceae, 0.5 vs 0 (ileal microbiota; [3]): -0.52 | L2 FC Glutamicibacter, 0.5 vs 0 (ileal microbiota; [3]): -0.49 | L2 FC Lachnoclostridium 5, 0.5 vs 0 (ileal microbiota; [3]): -0.09 | L2 FC Ralstonia, 0.5 vs 0 (ileal microbiota; [3]): -1.95 | L2 FC Romboutsia, 0.5 vs 0 (ileal microbiota; [3]): -0.07 | L2 FC Serratia, 0.5 vs 0 (ileal microbiota; [3]): -0.80 | L2 FC Tyzzerella, 0.5 vs 0 (ileal microbiota; [3]): -0.72 | L2 FC uncultured genus of Mollicutes RF39, 0.5 vs 0 (ileal microbiota; [3]): 0.65 | L2 FC uncultured genus of Peptostreptococcaceae, 0.5 vs 0 (ileal microbiota; [3]): -0.24 | Mean relative abundance (%) Cronobacter (ileal microbiota; [4]): 0.00% | Mean relative abundance (%) Curtobacterium (ileal microbiota; [4]): 0.02% | Mean relative abundance (%) Faecalibacterium (ileal microbiota; [4]): 0.02% | Mean relative abundance (%) Family_ Peptostreptococcaceae (ileal microbiota; [4]): 0.15% | Mean relative abundance (%) Glutamicibacter (ileal microbiota; [4]): 0.01% | Mean relative abundance (%) Lachnoclostridium 5 (ileal microbiota; [4]): 0.02% | Mean relative abundance (%) Ralstonia (ileal microbiota; [4]): 0.05% | Mean relative abundance (%) Romboutsia (ileal microbiota; [4]): 0.13% | Mean relative abundance (%) Serratia (ileal microbiota; [4]): 0.00% | Mean relative abundance (%) Tyzzerella (ileal microbiota; [4]): 0.00% | Mean relative abundance (%) uncultured genus of Mollicutes RF39 (ileal microbiota; [4]): 0.02% | Mean relative abundance (%) uncultured genus of Peptostreptococcaceae (ileal microbiota; [4]): 24.63% | Mean relative abundance of Lachnospiraceae (ileal microbiota; [4]): 14.77% | Mean relative abundance of Peptostreptococcaceae (ileal microbiota; [4]): 24.91% | Mean relative abundance of Ruminococcaceae (ileal microbiota; [4]): 6.11% | L2FC of LinDA-normalized abundance of Lachnospiraceae (ileal microbiota; 0.5 vs 0 g berberine/kg feed): -0.17 | L2FC of LinDA-normalized abundance of Peptostreptococcaceae (ileal microbiota; 0.5 vs 0 g berberine/kg feed): -0.50 | L2FC of LinDA-normalized abundance of Ruminococcaceae (ileal microbiota; 0.5 vs 0 g berberine/kg feed): 0.24 | L2 FC Cronobacter, 1 vs 0 (ileal microbiota; [5]): -3.64 | L2 FC Curtobacterium, 1 vs 0 (ileal microbiota; [5]): -2.66 | L2 FC Faecalibacterium, 1 vs 0 (ileal microbiota; [5]): -2.86 | L2 FC Family_ Peptostreptococcaceae, 1 vs 0 (ileal microbiota; [5]): -7.51 | L2 FC Glutamicibacter, 1 vs 0 (ileal microbiota; [5]): -2.76 | L2 FC Lachnoclostridium 5, 1 vs 0 (ileal microbiota; [5]): -3.40 | L2 FC Ralstonia, 1 vs 0 (ileal microbiota; [5]): -5.90 | L2 FC Romboutsia, 1 vs 0 (ileal microbiota; [5]): -6.95 | L2 FC Serratia, 1 vs 0 (ileal microbiota; [5]): -3.49 | L2 FC Tyzzerella, 1 vs 0 (ileal microbiota; [5]): -2.59 | L2 FC uncultured genus of Mollicutes RF39, 1 vs 0 (ileal microbiota; [5]): -3.09 | L2 FC uncultured genus of Peptostreptococcaceae, 1 vs 0 (ileal microbiota; [5]): -9.51 | Mean relative abundance (%) Cronobacter (ileal microbiota; 1 g berberine/kg feed, 21 days): 0.00% | Mean relative abundance (%) Curtobacterium (ileal microbiota; 1 g berberine/kg feed, 21 days): 0.03% | Mean relative abundance (%) Faecalibacterium (ileal microbiota; 1 g berberine/kg feed, 21 days): 0.01% | Mean relative abundance (%) Family_ Peptostreptococcaceae (ileal microbiota; 1 g berberine/kg feed, 21 days): 0.01% | Mean relative abundance (%) Glutamicibacter (ileal microbiota; 1 g berberine/kg feed, 21 days): 0.01% | Mean relative abundance (%) Lachnoclostridium 5 (ileal microbiota; 1 g berberine/kg feed, 21 days): 0.00% | Mean relative abundance (%) Ralstonia (ileal microbiota; 1 g berberine/kg feed, 21 days): 0.37% | Mean relative abundance (%) Romboutsia (ileal microbiota; 1 g berberine/kg feed, 21 days): 0.01% | Mean relative abundance (%) Serratia (ileal microbiota; 1 g berberine/kg feed, 21 days): 0.00% | Mean relative abundance (%) Tyzzerella (ileal microbiota; 1 g berberine/kg feed, 21 days): 0.01% | Mean relative abundance (%) uncultured genus of Mollicutes RF39 (ileal microbiota; 1 g berberine/kg feed, 21 days): 0.00% | Mean relative abundance (%) uncultured genus of Peptostreptococcaceae (ileal microbiota; 1 g berberine/kg feed, 21 days): 0.72% | Mean relative abundance of Lachnospiraceae (ileal microbiota; 1 g berberine/kg feed, 21 days): 26.87% | Mean relative abundance of Peptostreptococcaceae (ileal microbiota; 1 g berberine/kg feed, 21 days): 0.73% | Mean relative abundance of Ruminococcaceae (ileal microbiota; 1 g berberine/kg feed, 21 days): 8.08% | L2FC of LinDA-normalized abundance of Lachnospiraceae (ileal microbiota; 1 vs 0 g berberine/kg feed): 2.99 | L2FC of LinDA-normalized abundance of Peptostreptococcaceae (ileal microbiota; 1 vs 0 g berberine/kg feed): -6.91 | L2FC of LinDA-normalized abundance of Ruminococcaceae (ileal microbiota; 1 vs 0 g berberine/kg feed): 3.41 | Estimated microbial diversity (Shannon index) (ileal microbiota; highest concentration (1 g/kg feed), p = 0.045): significantly increased | Abundance of phylum Tenericutes (ileal microbiota; lowest concentration (0.1 g/kg feed)): increase
